ChEMBL document CHEMBL1201862, “PubChem BioAssay data set” (2004)
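Following 48 hours of exposure in 96-well plates, responses at five concentrations were used to interpolate endpoints linearly. GI50 is the concentration that inhibits growth by half.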 The source made the active and inactive calls. Cut-off read from the data, not from the text of the source: active = GI50 up to about 1.1 µM and inactive = higher.

Assays:
Assay in all cases: NCI-60 cell line screen, 48 h
HOP-62 = test system: HOP-62
NCI-H226 = test system: NCI-H226
NCI-H23 = test system: NCI-H23
SNB-19 = test system: SNB-19
NCI-H460 = test system: NCI-H460
Malme-3M = test system: Malme-3M
HL-60 = test system: HL-60
M19-MEL = test system: M19-MEL
A549 = test system: A549
OVCAR-3 = test system: OVCAR-3
IGROV-1 = test system: IGROV-1
LOX IMVI = test system: LOX IMVI
KM12 = test system: KM12
COLO 205 = test system: COLO 205
SK-MEL-5 = test system: SK-MEL-5
RPMI-8226 = test system: RPMI-8226
KM-20L2 = test system: KM-20L2
HCT-116 = test system: HCT-116

Measured: GI50

O=C(/C=C/c1c(O)ccc2ccccc12)c1ccccc1
inactive: HOP-62 > 100 µM | NCI-H226 > 100 µM | NCI-H23 95.7 µM | SNB-19 > 100 µM | NCI-H460 > 100 µM | Malme-3M > 100 µM | HL-60 35.7 µM | M19-MEL 29.4 µM | A549 > 100 µM | OVCAR-3 > 100 µM | IGROV-1 > 100 µM | LOX IMVI 19.3 µM | KM12 > 100 µM | COLO 205 > 100 µM | SK-MEL-5 > 100 µM | RPMI-8226 27 µM | KM-20L2 > 100 µM | HCT-116 > 100 µM

Cc1ccc(NC(=O)C(=O)C2C(=O)NC(=O)NC2=O)cc1C
inactive: HOP-62 > 100 µM | NCI-H226 > 100 µM | NCI-H23 > 100 µM | SNB-19 > 100 µM | NCI-H460 > 100 µM | Malme-3M > 100 µM | HL-60 > 100 µM | M19-MEL > 100 µM | A549 > 100 µM | OVCAR-3 > 100 µM | IGROV-1 > 100 µM | LOX IMVI > 100 µM | KM12 > 100 µM | COLO 205 > 100 µM | SK-MEL-5 > 100 µM | RPMI-8226 > 100 µM | KM-20L2 > 100 µM | HCT-116 > 100 µM

O=C(NCCCN1CCN(CCCNC(=O)c2cccc3ccccc23)CC1)c1cccc2ccccc12
inactive: HOP-62 30.8 µM | NCI-H226 > 100 µM | NCI-H23 57.8 µM | SNB-19 76.7 µM | NCI-H460 93.1 µM | Malme-3M 57.4 µM | HL-60 79.6 µM | M19-MEL > 100 µM | A549 > 100 µM | OVCAR-3 79.3 µM | IGROV-1 78.3 µM | LOX IMVI > 100 µM | KM12 > 100 µM | COLO 205 > 100 µM | SK-MEL-5 36.4 µM | RPMI-8226 > 100 µM | KM-20L2 34 µM | HCT-116 39.1 µM

O=C(O)CCC1CCc2cccc3occ1c23 (configuration not stated)
inactive: HOP-62 > 100 µM | NCI-H226 > 100 µM | NCI-H23 > 100 µM | SNB-19 > 100 µM | NCI-H460 > 100 µM | Malme-3M > 100 µM | HL-60 > 100 µM | M19-MEL > 100 µM | A549 > 100 µM | OVCAR-3 > 100 µM | IGROV-1 > 100 µM | LOX IMVI > 100 µM | KM12 > 100 µM | COLO 205 > 100 µM | SK-MEL-5 > 100 µM | RPMI-8226 > 100 µM | KM-20L2 > 100 µM | HCT-116 > 100 µM
